Measurements: patent publication US20140024527A1, “HERBICIDAL PYRAZINONES” (E I DU DE NEMOURS AND COMPANY, priority 2011, published 2014)

Tests used:
Format in all cases: in vivo
[1] = tested on: giant foxtail (Setaria faberii); test: Test A preemergence; details: 0 to 100 scale, 0 no effect, 100 complete control, approx. 10 days
From the text: (§1) Seeds of barnyardgrass (Echinochloa crus-galli), large crabgrass (Digitaria sanguinalis), giant foxtail (Setaria faberii), morningglory (Ipomoea spp.), pigweed (Amaranthus retroflexus), velvetleaf (Abutilon theophrasti), wheat (Triticum aestivum) and corn (Zea mays) were planted into a blend of loam soil and sand and treated preemergence with a directed soil spray using test chemicals formulated in a non-phytotoxic solvent mixture which included a surfactant. At the same time these species were also treated with postemergence applications of test compounds formulated in the same manner. Plants ranged in height from 2 to 10 cm and were in the one- to two-leaf stage for the postemergence treatments. Treated plants and untreated controls were maintained in a greenhouse for approximately 10 days, after which time all treated plants were compared to untreated controls and visually evaluated for injury. Plant response ratings, summarized in Table A, are based on a 0 to 100 scale where 0 is no effect and 100 is complete control.

[2] = tested on: barnyardgrass (Echinochloa crus-galli); test: Test A preemergence; details: 0 to 100 scale, 0 no effect, 100 complete control, approx. 10 days
From the text: as §1

[3] = tested on: corn (Zea mays); test: Test A preemergence; details: 0 to 100 scale, 0 no effect, 100 complete control, approx. 10 days
From the text: as §1

[4] = tested on: morningglory (Ipomoea spp.); test: Test A preemergence; details: 0 to 100 scale, 0 no effect, 100 complete control, approx. 10 days
From the text: as §1

[5] = tested on: wheat (Triticum aestivum); test: Test A preemergence; details: 0 to 100 scale, 0 no effect, 100 complete control, approx. 10 days
From the text: as §1

[6] = tested on: velvetleaf (Abutilon theophrasti); test: Test A preemergence; details: 0 to 100 scale, 0 no effect, 100 complete control, approx. 10 days
From the text: as §1

[7] = tested on: large crabgrass (Digitaria sanguinalis); test: Test A preemergence; details: 0 to 100 scale, 0 no effect, 100 complete control, approx. 10 days
From the text: as §1

[8] = tested on: pigweed (Amaranthus retroflexus); test: Test A preemergence; details: 0 to 100 scale, 0 no effect, 100 complete control, approx. 10 days
From the text: as §1

[9] = tested on: barnyardgrass (Echinochloa crus-galli); test: Test B flooded paddy test; details: Flood
From the text: (§2) Plant species in the flooded paddy test consisted of rice (Oryza sativa), umbrella sedge (Cyperus difformis), ducksalad (Heteranthera limosa) and barnyardgrass (Echinochloa crus-galli) grown to the 2-leaf stage for testing. At time of treatment, test pots were flooded to 3 cm above the soil surface, treated by application of test compounds directly to the paddy water, and then maintained at that water depth for the duration of the test. Treated plants and controls were maintained in a greenhouse for 13 to 15 days, after which time all species were compared to controls and visually evaluated. Plant response ratings, summarized in Table B, are based on a scale of 0 to 100 where 0 is no effect and 100 is complete control. A dash (-) response means no test result.

[10] = tested on: umbrella sedge (Cyperus difformis); test: Test B flooded paddy test; details: Flood, scale 0 to 100
From the text: as §2

[11] = tested on: rice (Oryza sativa); test: Test B flooded paddy test; details: Flood, scale 0 to 100
From the text: as §2

[12] = tested on: ducksalad (Heteranthera limosa); test: Test B flooded paddy test; details: Flood, scale 0 to 100
From the text: as §2

[13] = tested on: giant foxtail (Setaria faberii); test: Test A postemergence; details: 0 to 100 scale, 0 no effect, 100 complete control, approx. 10 days
From the text: as §1

[14] = tested on: barnyardgrass (Echinochloa crus-galli); test: Test A postemergence; details: 0 to 100 scale, 0 no effect, 100 complete control, approx. 10 days
From the text: as §1

[15] = tested on: corn (Zea mays); test: Test A postemergence; details: 0 to 100 scale, 0 no effect, 100 complete control, approx. 10 days
From the text: as §1

[16] = tested on: morningglory (Ipomoea spp.); test: Test A postemergence; details: 0 to 100 scale, 0 no effect, 100 complete control, approx. 10 days
From the text: as §1

[17] = tested on: wheat (Triticum aestivum); test: Test A postemergence; details: 0 to 100 scale, 0 no effect, 100 complete control, approx. 10 days
From the text: as §1

[18] = tested on: velvetleaf (Abutilon theophrasti); test: Test A postemergence; details: 0 to 100 scale, 0 no effect, 100 complete control, approx. 10 days
From the text: as §1

[19] = tested on: large crabgrass (Digitaria sanguinalis); test: Test A postemergence; details: 0 to 100 scale, 0 no effect, 100 complete control, approx. 10 days
From the text: as §1

[20] = tested on: pigweed (Amaranthus retroflexus); test: Test A postemergence; details: 0 to 100 scale, 0 no effect, 100 complete control, approx. 10 days
From the text: as §1

[21] = 250 g ai/ha, scale 0 to 100 (0 no effect, 100 complete control)

COCCn1c(-c2cc(F)cc(F)c2)cnc(C(=O)C2=C(O)CCCC2=O)c1=O [Compound 5, 6-(3,5-difluorophenyl)-3-[(2-hydroxy-6-oxo-1-cyclohexen-1-yl)carbonyl]-1-(2-methoxyethyl)-2(1H)-pyrazinone]
Plant response rating, Foxtail, Giant ([1]; 31 g ai/ha): 20
Plant response rating, Foxtail, Giant ([1]; 125 g ai/ha): 70
Plant response rating, Foxtail, Giant ([1]; 500 g ai/ha): 80
Plant response rating, Barnyardgrass ([2]; 31 g ai/ha): 0
Plant response rating, Barnyardgrass ([2]; 125 g ai/ha): 50
Plant response rating, Barnyardgrass ([2]; 500 g ai/ha): 80
Plant response rating, Corn ([3]; 31 g ai/ha): 0
Plant response rating, Corn ([3]; 125 g ai/ha): 0
Plant response rating, Corn ([3]; 500 g ai/ha): 0
Plant response rating, Morningglory ([4]; 31 g ai/ha): 0
Plant response rating, Morningglory ([4]; 125 g ai/ha): 40
Plant response rating, Morningglory ([4]; 500 g ai/ha): 80
Plant response rating, Wheat ([5]; 31 g ai/ha): 0
Plant response rating, Wheat ([5]; 125 g ai/ha): 0
Plant response rating, Wheat ([5]; 500 g ai/ha): 0
Plant response rating, Velvetleaf ([6]; 31 g ai/ha): 30
Plant response rating, Velvetleaf ([6]; 125 g ai/ha): 70
Plant response rating, Velvetleaf ([6]; 500 g ai/ha): 80
Plant response rating, Crabgrass, Large ([7]; 31 g ai/ha): 20
Plant response rating, Crabgrass, Large ([7]; 125 g ai/ha): 100
Plant response rating, Crabgrass, Large ([7]; 500 g ai/ha): 100
Plant response rating, Pigweed ([8]; 31 g ai/ha): 40
Plant response rating, Pigweed ([8]; 125 g ai/ha): 90
Plant response rating, Pigweed ([8]; 500 g ai/ha): 90
Plant response rating, Barnyardgrass ([9]; 31 g ai/ha, scale 0 to 100): 0
Plant response rating, Barnyardgrass ([9]; 62 g ai/ha, scale 0 to 100): 0
Plant response rating, Barnyardgrass ([9]; 125 g ai/ha, scale 0 to 100): 25
Plant response rating, Barnyardgrass [9, 21]: 80
Plant response rating, Sedge, Umbrella ([10]; 31 g ai/ha): 50
Plant response rating, Sedge, Umbrella ([10]; 62 g ai/ha): 70
Plant response rating, Sedge, Umbrella ([10]; 125 g ai/ha): 90
Plant response rating, Sedge, Umbrella ([10]; 250 g ai/ha): 100
Plant response rating, Rice ([11]; 31 g ai/ha): 0
Plant response rating, Rice ([11]; 62 g ai/ha): 0
Plant response rating, Rice ([11]; 125 g ai/ha): 10
Plant response rating, Rice ([11]; 250 g ai/ha): 20
Plant response rating, Ducksalad ([12]; 31 g ai/ha): 0
Plant response rating, Ducksalad ([12]; 62 g ai/ha): 40
Plant response rating, Ducksalad ([12]; 125 g ai/ha): 60
Plant response rating, Ducksalad ([12]; 250 g ai/ha): 90
Plant response rating, Foxtail, Giant ([13]; 31 g ai/ha): 30
Plant response rating, Foxtail, Giant ([13]; 125 g ai/ha): 60
Plant response rating, Foxtail, Giant ([13]; 500 g ai/ha): 80
Plant response rating, Barnyardgrass ([14]; 31 g ai/ha): 50
Plant response rating, Barnyardgrass ([14]; 125 g ai/ha): 90
Plant response rating, Barnyardgrass ([14]; 500 g ai/ha): 90
Plant response rating, Corn ([15]; 31 g ai/ha): 10
Plant response rating, Corn ([15]; 125 g ai/ha): 50
Plant response rating, Corn ([15]; 500 g ai/ha): 60
Plant response rating, Morningglory ([16]; 31 g ai/ha): 80
Plant response rating, Morningglory ([16]; 125 g ai/ha): 90
Plant response rating, Morningglory ([16]; 500 g ai/ha): 90
Plant response rating, Wheat ([17]; 31 g ai/ha): 0
Plant response rating, Wheat ([17]; 125 g ai/ha): 30
Plant response rating, Wheat ([17]; 500 g ai/ha): 30
Plant response rating, Velvetleaf ([18]; 31 g ai/ha): 70
Plant response rating, Velvetleaf ([18]; 125 g ai/ha): 80
Plant response rating, Velvetleaf ([18]; 500 g ai/ha): 100
Plant response rating, Crabgrass, Large ([19]; 31 g ai/ha): 70
Plant response rating, Crabgrass, Large ([19]; 125 g ai/ha): 90
Plant response rating, Crabgrass, Large ([19]; 500 g ai/ha): 90
Plant response rating, Pigweed ([20]; 31 g ai/ha): 80
Plant response rating, Pigweed ([20]; 125 g ai/ha): 100
Plant response rating, Pigweed ([20]; 500 g ai/ha): 100

COCCCn1c(-c2cc(F)cc(F)c2)c(Cl)nc(C(=O)C2=C(O)CCCC2=O)c1=O [Compound 8]
Plant response rating, Foxtail, Giant ([1]; 31 g ai/ha): 0
Plant response rating, Foxtail, Giant ([1]; 125 g ai/ha): 0
Plant response rating, Barnyardgrass ([2]; 31 g ai/ha): 0
Plant response rating, Barnyardgrass ([2]; 125 g ai/ha): 10
Plant response rating, Corn ([3]; 31 g ai/ha): 0
Plant response rating, Corn ([3]; 125 g ai/ha): 0
Plant response rating, Morningglory ([4]; 31 g ai/ha): 0
Plant response rating, Morningglory ([4]; 125 g ai/ha): 10
Plant response rating, Wheat ([5]; 31 g ai/ha): 0
Plant response rating, Wheat ([5]; 125 g ai/ha): 0
Plant response rating, Velvetleaf ([6]; 31 g ai/ha): 0
Plant response rating, Velvetleaf ([6]; 125 g ai/ha): 0
Plant response rating, Crabgrass, Large ([7]; 31 g ai/ha): 20
Plant response rating, Crabgrass, Large ([7]; 125 g ai/ha): 40
Plant response rating, Pigweed ([8]; 31 g ai/ha): 0
Plant response rating, Pigweed ([8]; 125 g ai/ha): 10
Plant response rating, Barnyardgrass ([9]; 31 g ai/ha, scale 0 to 100): 0
Plant response rating, Barnyardgrass ([9]; 62 g ai/ha, scale 0 to 100): 0
Plant response rating, Barnyardgrass ([9]; 125 g ai/ha, scale 0 to 100): 0
Plant response rating, Barnyardgrass [9, 21]: 40
Plant response rating, Sedge, Umbrella ([10]; 31 g ai/ha): 0
Plant response rating, Sedge, Umbrella ([10]; 62 g ai/ha): 40
Plant response rating, Sedge, Umbrella ([10]; 125 g ai/ha): 40
Plant response rating, Sedge, Umbrella ([10]; 250 g ai/ha): 75
Plant response rating, Rice ([11]; 31 g ai/ha): 0
Plant response rating, Rice ([11]; 62 g ai/ha): 0
Plant response rating, Rice ([11]; 125 g ai/ha): 0
Plant response rating, Rice ([11]; 250 g ai/ha): 25
Plant response rating, Ducksalad ([12]; 31 g ai/ha): 0
Plant response rating, Ducksalad ([12]; 62 g ai/ha): 0
Plant response rating, Ducksalad ([12]; 125 g ai/ha): 30
Plant response rating, Ducksalad ([12]; 250 g ai/ha): 80
Plant response rating, Foxtail, Giant ([13]; 31 g ai/ha): 0
Plant response rating, Foxtail, Giant ([13]; 125 g ai/ha): 10
Plant response rating, Barnyardgrass ([14]; 31 g ai/ha): 0
Plant response rating, Barnyardgrass ([14]; 125 g ai/ha): 10
Plant response rating, Corn ([15]; 31 g ai/ha): 0
Plant response rating, Corn ([15]; 125 g ai/ha): 0
Plant response rating, Morningglory ([16]; 31 g ai/ha): 0
Plant response rating, Morningglory ([16]; 125 g ai/ha): 50
Plant response rating, Wheat ([17]; 31 g ai/ha): 0
Plant response rating, Wheat ([17]; 125 g ai/ha): 0
Plant response rating, Velvetleaf ([18]; 31 g ai/ha): 10
Plant response rating, Velvetleaf ([18]; 125 g ai/ha): 50
Plant response rating, Crabgrass, Large ([19]; 31 g ai/ha): 0
Plant response rating, Crabgrass, Large ([19]; 125 g ai/ha): 30
Plant response rating, Pigweed ([20]; 31 g ai/ha): 20
Plant response rating, Pigweed ([20]; 125 g ai/ha): 40
